Source: patent publication US11412737B2, “Mixtures of beflubutamid or optically enriched forms thereof with a second herbicide” (FMC Corporation, priority 2016, dated 2022)
Where “and” joins values, the source holds several entries; their conditions need not be identical. Equal values may be shown once.

Tests used:
Assay in all cases: pre-emergence test, weed control
[1] = test system: Common lambsquarters (CHEAL); format: in vivo, Chenopodium album; details: pre-emergent, 28 DAT; rate g ai/ha by row: r5 94, r6 125, r7 250, r8 3.28, r9 6.56, r10 13.1, r11 94+3.28, r12 94+6.56, r13 94+13.1, r14 125+3.28, r15 125+6.56, r16 125+13.1
Method: (§1) Test compositions containing the test compounds were diluted with water to provide the appropriate test rate concentrations.
(§2) For pre-emergence testing, four disposable fiber flats (6 inch by 10 inch) for each rate of application of each herbicide solution were filled with top soil, to which seeds of each species were planted in furrows made by a template pressed on the top of the soil. The furrows were covered with soil after planting the seed and were watered well before application of the test compounds.
(§3) Fiber flats designated for treatment were placed in a spray chamber having a static platform and a movable sprayer and the height of the spray nozzle was 10.5 inches above the soil level. Once the sprayer was calibrated using water for spray volume of 30 gallons per acre, flats were sprayed with sprayer at a speed to receive a coverage equivalent of 30 gallons per acre. The application rates are those shown in the Tables below for the individual herbicidal solutions and the herbicide compositions of this invention. The pre-emergence flats were immediately placed in the greenhouse and watered lightly after treatment. Thereafter they were regularly watered and fertilized for the duration of the test.
(§4) The control of weeds was evaluated in each experimental test at 21 for wheat and 28 days after treatment (DAT) for all species. Data were analyzed using Minitab software at 95% confidence interval. The results, shown as an average of the replications, were compared with results observed in untreated control flats in the same tests. Percent control was determined by a method similar to the 0 to 100 rating system disclosed in “Research Methods in Weed Science,” 2nd ed., B. Truelove, Ed.; Southern Weed Science Society; Auburn University, Auburn, Ala., 1977. The rating system is as follows in Table 1.

Kochia (KCHSC) = format: in vivo; details: pre-emergent, 28 DAT; rate g ai/ha by row: r5 94, r6 125, r7 250, r8 3.28, r9 6.56, r10 13.1, r11 94+3.28, r12 94+6.56, r13 94+13.1, r14 125+3.28, r15 125+6.56, r16 125+13.1
Method: as §1, §2, §3, §4

Rice flatsedge (CYPIR) = format: in vivo; details: pre-emergent, 28 DAT; rate g ai/ha by row: r5 94, r6 125, r7 250, r8 3.28, r9 6.56, r10 13.1, r11 94+3.28, r12 94+6.56, r13 94+13.1, r14 125+3.28, r15 125+6.56, r16 125+13.1
Method: as §1, §2, §3, §4

Barnyardgrass (ECHCG) = format: in vivo, Echinochloa crus-galli; details: pre-emergent, 28 DAT; rate g ai/ha by row: r5 94, r6 125, r7 250, r8 62.5, r9 125, r10 250, r11 94+62.5, r12 125+62.5, r13 94+125, r14 125+125, r15 94+250, r16 125+250, r17 78.8, r18 157.5, r19 315, r20 94+78.8, r21 125+78.8, r22 94+157.5, r23 125+157.5, r24 94+315, r25 125+315
Method: as §1, §2
Fiber flats designated for treatment were placed in a spray chamber having a static platform and a movable sprayer and the height of the spray nozzle was 10.5 inches above the soil level. Once the sprayer was calibrated using water for spray volume of 30 gallons per acre, flats were sprayed with sprayer at a speed to receive a coverage equivalent of 30 gallons per acre. […]
The control of weeds was evaluated in each experimental test at 21 for wheat and 28 days after treatment (DAT) for all species. Data were analyzed using Minitab software at 95% confidence interval. […] Percent control was determined by a method similar to the 0 to 100 rating system disclosed in “Research Methods in Weed Science,” 2nd ed., B. Truelove, Ed.; Southern Weed Science Society; Auburn University, Auburn, Ala., 1977. […]

Goosegrass (ELEIN) = format: in vivo; details: pre-emergent, 28 DAT; rate g ai/ha by row: r5 94, r6 125, r7 250, r8 62.5, r9 125, r10 250, r11 94+62.5, r12 125+62.5, r13 94+125, r14 125+125, r15 94+250, r16 125+250, r17 78.8, r18 157.5, r19 315, r20 94+78.8, r21 125+78.8, r22 94+157.5, r23 125+157.5, r24 94+315, r25 125+315
Method: as §1, §2, §3, §4

Large crabgrass (DIGSA) = format: in vivo; details: pre-emergent, 28 DAT, rate g ai/ha by row: r4 94, r5 50, r6 100, r7 52.5, r8 70, r9 94+52.5, r10 94+70, r11 50+52.5, r12 50+70, r13 100+52.5, r14 100+70
Method: as §1, §2, §3, §4

SMILES	percentage of weed control, Common lambsquarters CHEAL [1]	percentage of weed control, Kochia KCHSC (Kochia (KCHSC))	percentage of weed control, Rice flatsedge CYPIR (Rice flatsedge (CYPIR))	percentage of weed control, Barnyardgrass ECHCG (Barnyardgrass (ECHCG)) [%]	percentage of weed control, Goosegrass ELEIN (Goosegrass (ELEIN)) [%]	percentage of weed control, DIGSA (Large crabgrass (DIGSA); 52.5 g ai/ha) [%]	percentage of weed control, DIGSA (Large crabgrass (DIGSA); 70 g ai/ha) [%]
COC(=O)c1c(Cl)nn(C)c1S(=O)(=O)NC(=O)Nc1nc(OC)cc(OC)n1 [Halosulfuron-methyl]	86% and 56% and 90%	66% and 38% and 40%	95% and 71% and 99%	–	–	–	–
COC[C@H](C)N(C(=O)CCl)c1c(C)csc1C [Dimethanamid-P]	–	–	–	100	96	20	25
